This is an account of results in article PMC12110735 (Diseases, 2025).

Entries after “also recorded” stand apart in the source; their conditions may differ. Read-outs that look alike come from different tables or passages of the source.

Series [1] has as its system HCC70 basal triple-negative breast cancer (TNBC) cell line. Kind of series: Cytotoxicity, resazurin assay, 96 h, HCC70. The settings on record: for IC50: 96 h, read-out: HCC70 (IC50 and SD); for Selectivity Index (SI) HCC70: IC50 in MCF12A / IC50 in HCC70. Type of series: cell-based. On the procedure: (§1) The cytotoxicity and IC50 values of the isolated compounds were evaluated in three cell lines, namely, the HCC70 basal triple-negative breast cancer (TNBC) cell line (ATCC: CRL-2315), the hormone receptor-positive breast cancer MCF-7 cell line (ATCC: HTB-22) and the non-tumorigenic breast epithelial cell line MCF12A (ATCC: CRL-10782) using the resazurin assay. The cells were seeded at a density of 5000 cells/well in a 96-well plate and allowed to attach overnight at 37 °C and 9% CO2. The cells were then treated with DMSO as vehicle control (0.2% vM), paclitaxel (Sigma-Aldrich, St. Louis, USA) as a positive control (0.32 to 200 nm) and a six-point range concentration (0.32 to 200 μM) of the isolated pure compounds and incubated for 96 h at 37 DC in a humidified 9% CO2 incubator. Resazurin ([…]) was added to the cells, and the cells were incubated for 2–4 h at 37 °C in 9% CO2. Fluorescence readings were obtained on a Spectramax spectrophotometer (excitation and emission wavelength set to 560 nm and 590 nm, respectively). The experiment was performed in triplicate, and the data was analyzed using GraphPad Prism Inc., (Version 4, USA) with a half-maximal inhibitory concentration (IC50 values) determined by non-linear regression. A selectivity index (SI) was determined for each compound to determine its therapeutic significance in cancerous cells. It was calculated as follows: Selectivity index (SI) = IC50 of compound in MCF12A/IC50 of compound in cancer line
(§2) SI function is a crucial metric for assessing a compound’s potential safety, with values below 1 indicating toxicity and those above 10 implying high selectivity for further investigation.

In series [2] the test system is hormone receptor-positive breast cancer MCF-7 cell line. Kind of series: Cytotoxicity, resazurin assay, 96 h, MCF-7. The series is classed as cell-based. Particulars: for IC50 / cytotoxic activity against MCF-7 (in words): MCF-7 cells; for IC50: 96 h, read-out: MCF-7 (IC50 and SD); for Selectivity Index (SI) MCF-7: IC50 in MCF12A / IC50 in MCF-7. The method, then:
as §1, §2
Background: Resazurin is reduced to fluorescent resorufin, in cell work by metabolically active cells.

The test system of series [3] is non-tumorigenic breast epithelial cell line MCF12A. The experiment in a line: Cytotoxicity, resazurin assay, 96 h, MCF-12A. Type of series: cell-based. Particulars: MCF-12A cells; for IC50: 96 h, read-out: MCF-12A (IC50 and SD). On the procedure: as §1, §2
A further series has as its system NF-kappa B. Particulars: cited from earlier work.
The subject of series [4] is leukemic cell line (L1210). Set-up: method as in PMID 12612427. The settings on record: cited from earlier work.
Setting [5] is: Homo sapiens, HCC70, 96 h, HCC70 cells, resazurin, triplicate.
Where [6] appears, read: Homo sapiens, MCF7, 96 h, resazurin, triplicate.
[7] abbreviates: Homo sapiens, MCF-12A, resazurin, triplicate.
Where [8] appears, read: resazurin, triplicate, listed as 13R-Nepetaefolin (2).

What is called IC50 is the midpoint of a concentration-inhibition curve. In the case of `CC(=O)O[C@@H]1C[C@@]2(CO2)[C@]2(CC[C@@]3(C=COC3)O2)[C@]23CCC[C@](C)(C(=O)OC2)[C@H]13` [Compound 1, 13S-nepetaefolin], the half-maximal inhibitory concentration (IC50) is 24600 ± 1180 nM in series [1] (setting [5]); greater than 200000 nM in series [2] (setting [6]); greater than 200000 nM in series [2] (resazurin, triplicate, listed as 13S-Nepetaefolin (1)); 26600 ± 1320 nM in series [3] (setting [7]). For the same compound, the results for the “Selectivity Index (SI) HCC70” value in series [1] (listed as 13S-Nepetaefolin (1)) and in series [1] (listed as 13S-nepetaefolin (1)) were 1.08 and 1.077, respectively. Also, the “Selectivity Index (SI) MCF-7” value in series [2] was less than 0.132.
In the case of `CC(=O)O[C@@H]1C[C@@]2(CO2)[C@]2(CC[C@]3(C=COC3)O2)[C@]23CCC[C@](C)(C(=O)OC2)[C@H]13` [Compound 2, nepetaefolin], the “cytotoxic activity against HCC70 (in words)” value in series [1] (HCC70 cells) was “no activity; also recorded: no such effects”. Also, the half-maximal inhibitory concentration (IC50) was greater than 200000 nM in series [1] (HCC70 cells, resazurin, triplicate, listed as 13R-Nepetaefolin (2)); greater than 200000 nM in series [1] (setting [5]); greater than 200000 nM in series [2] (setting [6]); greater than 200000 nM in series [2] (setting [8]); greater than 200000 nM in series [3] (setting [7]); greater than 200000 nM in series [3] (setting [8]).
As to `CC(=O)O[C@@H]1C[C@@H](C)[C@](O)(CCc2ccoc2)[C@]23CCC[C@](C)(C(=O)OC2)[C@H]13` [Compound 3, dubiin], the values for the IC50 in series [1] (setting [5]), in series [2] (setting [6]) and in series [3] (setting [7]) were 127900 ± 1230 nM, greater than 200000 nM and greater than 200000 nM, respectively. Further, the “Selectivity Index (SI) HCC70” value in series [1] (listed as dubiin (3)) is recorded as 1.564. Also, the “cytotoxic activity against MCF-7 (in words)” value in series [2] is “non-toxic”. In series [3], the “cytotoxic activity against MCF-12A (in words)” value is listed as “non-toxic”.
On to `CC(=O)O[C@@H]1C[C@@]2(CO2)[C@](O)(CCc2ccoc2)[C@]23CCC[C@](C)(C(=O)OC2)[C@H]13` [Compound 4, nepetaefuran], for which the “anti-inflammatory activity, LPS pathway / NF-kappa B transactivation (in words)” value in the series on NF-kappa B is listed as “suppression of the transactivation of NF-kappa B”. Moreover, the results for the IC50 in series [1] (setting [5]), in series [2] (setting [6]) and in series [3] (setting [7]) were 73700 ± 1100 nM, greater than 200000 nM and greater than 200000 nM, respectively. Besides, in series [1] (listed as nepetaefuran (4)), the “Selectivity Index (SI) HCC70” value came out at 2.715. The “cytotoxic activity against MCF-7 (in words)” value in series [2] is recorded as “no cytotoxic activity”. Besides, the “cytotoxic activity against MCF-12A (in words)” value in series [3] is “no cytotoxic activity”.
Consider `C[C@@]12CCC[C@]3(C)C(=O)O[C@H](C[C@@]4(CO4)[C@]1(O)CCc1ccoc1)[C@H]23` [Compound 5, leonotin], for which the “cytotoxic activity against leukemic cell lines (in words)” value in series [4] was “cytotoxic activity”.
`CC(=O)O[C@H]1C(=O)[C@@]2(C)[C@H]([C@H](OC(=O)c3ccccc3)[C@]3(O)C[C@H](OC(=O)[C@H](O)[C@@H](NC(=O)c4ccccc4)c4ccccc4)C(C)=C1C3(C)C)[C@]1(OC(C)=O)CO[C@@H]1C[C@@H]2O` [Paclitaxel, paclitaxel, reference compound]: the IC50 in series [1] (Homo sapiens, HCC70, 96 h, HCC70 cells, positive control in nM) is 3.92 ± 1.03 nM; in series [2] (Homo sapiens, MCF7, 96 h, positive control in nM) it was 2.41 ± 1.11 nM; in series [3] (Homo sapiens, MCF-12A, positive control in nM), 16.2 ± 1.08 nM. Also, in series [1], the “Selectivity Index (SI) HCC70” value is on record as 4.12. Also, the “Selectivity Index (SI) MCF-7” value in series [2] came to 6.71.
Take leonotinin [Compound 6]: the “cytotoxic activity against leukemic cell lines (in words)” value in series [4] is given as “cytotoxic activity”. In the series on NF-kappa B, the “anti-inflammatory activity, LPS pathway / NF-kappa B transactivation (in words)” value is on record as “suppression of the transactivation of NF-kappa B”. Further, the IC50 in series [1] (HCC70 cells, resazurin, triplicate) was 94900 ± 1100 nM; in series [2] (resazurin, triplicate), greater than 200000 nM; in series [3] (resazurin, triplicate), greater than 200000 nM. Also, the “Selectivity Index (SI) HCC70” value in series [1] (listed as leonotinin (6)) came to 2.108. Moreover, the “cytotoxic activity against MCF-7 (in words)” value in series [2] is on record as “no cytotoxic activity”. In series [3], the “cytotoxic activity against MCF-12A (in words)” value is reported as “no cytotoxic activity”.
